How the values were obtained:
Assay type in all cases: cell-based
IGFBP-1 [1] = assay: IGFBP-1 gene expression by Real Time PCR in co-cultured bovine theca and granulosa cells; details: Phase 1: FSH (46 h), LH + insulin, then exogenous IGF-1 100 ng/ml 48 h; vs untreated control
Description: (§1) The anti-proliferative activity of Dioscorea villosa, Vitamin D, and α-lactalbumin was investigated (alone or in combination) in cultured bovine theca and granulosa cells (co-culture). To investigate the properties of these natural molecules, the inventors evaluated their effect on cell viability, proliferation, and apoptosis.
(§2) Bovine theca and granulosa were co-cultured, (DMEM, High glucose 5% FBS, […], 1% Pen/Strep, 1% Amphotericin B, 1% Glutamine) for 7 days. The cells were grown in petri dishes and treated shortly before reaching 80% confluence. […]
(§3) The expression of insuline like growth factor IGF-1 and IGF-BP1 insulin like growth factor binding protein 1 were both measured by Real Time PCR and western blot, to investigate the effects of the treatment with the raw materials; namely, Dioscorea villosa, Vitamin D and α-lactalbumin alone or in combination.
(§4) The results were measured as 2^−ΔΔCt for the mRNA assay. Both for the Real Time PCR and western blot analyses, the data are expressed as fold increases in relation to the housekeeping genes. Proliferation (ki67 western blot assay) and apoptosis (caspase-9 western blot assay) assessed the expression as per the experimental conditions reported above.
(§5) Co-cultured bovine theca and granulosa cells; grown as described in phase 1. The expression of IGF-1 and IGF-BP1 were analyzed after treatment with Dioscorea villosa. […]

IGF-1 [2] = assay: IGF-1 gene expression by Real Time PCR in co-cultured bovine theca and granulosa cells; details: Phase 1: FSH (46 h), LH 1.5 UI/ml + insulin 100 ng/ml 10 min, then exogenous IGF-1 100 ng/ml 48 h; vs untreated control
Description: as §1, §2, §3, §4, §5

IGFBP-1 [3] = assay: IGFBP-1 protein quantification by western blot in co-cultured bovine theca and granulosa cells; details: Phase 1: FSH (46 h), LH + insulin, then exogenous IGF-1 100 ng/ml 48 h; vs untreated control
Description: as §1, §2, §3, §4, §5

IGF-1 [4] = assay: IGF-1 protein quantification by western blot in co-cultured bovine theca and granulosa cells; details: Phase 1: FSH (46 h), LH + insulin, then exogenous IGF-1 100 ng/ml 48 h; vs untreated control
Description: as §1, §2, §3, §4, §5

caspase-9 [5] = assay: caspase-9 gene expression (mRNA) in co-cultured bovine theca and granulosa cells; details: Phase 1: FSH (46 h), LH + insulin, then exogenous IGF-1 100 ng/ml 48 h; vs untreated control
Description: as §1, §2, §4, §5
(§6) The results were measured as […] for the mRNA assay. Both for the Real Time PCR and western blot analyses, the data are expressed as fold increases in relation to the housekeeping genes. […]
(§7) The results were measured as […] for the mRNA assay. […]

ki-67 [6] = assay: ki-67 gene expression (mRNA) in co-cultured bovine theca and granulosa cells; details: Phase 1: FSH (46 h), LH + insulin, then exogenous IGF-1 100 ng/ml 48 h; vs untreated control
Description: as §1, §2, §4, §5, §6, §7

caspase-9 [7] = assay: Apoptosis (caspase-9 western blot assay) in co-cultured bovine theca and granulosa cells
Description: as §1, §2, §4, §5, §6, §7

ki-67 [8] = assay: Proliferation (ki67 western blot assay) in co-cultured bovine theca and granulosa cells
Description: as §1, §2, §4, §5, §6, §7

[9] = Phase 1: FSH (46 h), LH + insulin, then exogenous IGF-1 100 ng/ml 48 h, vs untreated control
[10] = Results text: treatment with IGF-1 (48 h)

## IGF-1: exogenous insulin like growth factor IGF-1, 100 ng/ml for 48 h, used as proliferative stimulus
IGFBP-1 [1]
  gene expression of IGFBP-1 (mRNA): not significant
IGF-1 [2]
  gene expression of IGF-1 (mRNA): significant increase
IGFBP-1 [3]
  quantification of IGFBP-1 protein: not significant
IGF-1 [4]
  quantification of IGF-1 protein: significant increase
caspase-9 [5]
  gene expression of caspase-9 (mRNA): not significant
ki-67 [6]
  gene expression of ki-67 (mRNA): significant increase
caspase-9 [7]; [9]
  quantification of caspase-9 protein: not significant
caspase-9 [7]; [10]
  rate of apoptosis observed in the cell culture: reduction in the rate of apoptosis
ki-67 [8]; [9]
  quantification of ki-67 protein: significant increase
ki-67 [8]; [10]
  proliferative effect: strong proliferative effect

Reference: US20260014171A1, “COMPOSITION FOR THE USE IN THE TREATMENT OF POLYCYSTIC OVARY SYNDROME” (LO.LI. PHARMA S.R.L., priority 2023, published 2026)
